# Read-outs that look alike come from different tables or passages of the source.
# Experiments:
# [1] = tested on: beta amyloid (Aβ) production in N2a/APP cells; test: Inhibition of beta amyloid Aβ(1-42) production in nerve cells, immunoassay; assay type: cell-based; details: read-out: Aβ Inhibition Rate (%)
# Protocol: N2a/APP cells, used as a study model for neurodegenerative diseases (Wang X C, Zhang Y C, Chatterjie N, Grundke-Iqbal I, Iqbal K, Wang J Z. Neurochem Res (2008) 33:1138-1144), were employed to analyze the inhibition of beta amyloid (Aβ) production in nerve cells. N2a/APP cells were fixed onto 24-well plates (5×10^4 cells/well) containing a medium devoid of hygromycin B. The ingredients listed in Table 5 were added at a final concentration of 10 μg/mL to each well and incubated for 48 hrs. Secreted Aβ(1-42) was quantitatively analyzed with an Aβ(1-42) immunoassay kit (Biosource, Camarillo, Calif., USA). In this regard, the medium in each well was transferred into 96-well plates coated with an Aβ(1-42) antibody and then treated with a detection antibody. For this, after incubation at room temperature for 3 hrs, the medium was treated with HRP (horseradish peroxidase), an anti-rabbit antibody and stabilized chromogen to allow an antigen-antibody reaction. This reaction was terminated with a stop buffer before absorbance was read at 450 nm. For a negative control, no samples were added to the medium. Inhibitory effects on beta amyloid production were calculated according to the following equation and the results are summarized in Table 5, below.
# Aβ Inhibition (%)=(C−S)/C×100
# (§1) where C is the absorbance of a negative control and S is the absorbance of each sample.
# N2a/APP cells = test: Reduction of neurotoxicity, MTT cell viability assay; assay type: cell-based; details: 10 μg/mL, 12 hrs
# Protocol: For this, N2a/APP cells were subjected to an MTT assay, which is a measure of mitochondrial activity that converts 3-(4,5-dimethyl-thiazol-2-yl)-2,5-diphenyl-tetrazolium bromide (MTT) to formazan in living cells. N2a/APP cells were seeded at a density of 1×10^4 cells/well into 96-well plates, incubated for 24 hrs, and left for 12 hrs in serum-free DMEM-Opti-MEM. Thereafter, the samples listed in Table 5 were added at a final concentration of 10 μg/mL to each well (medium free of any of the samples was used for a negative control) and then incubated for 12 hrs. To each well was added approx. 10 μL of MTT (5 mg/ml in phosphate buffered saline (PBS) solution), followed by incubation at 37° C. for 4 hrs. Each well was measured for absorbance at 570 nm. Inhibitory activity against neurotoxicity was assessed by an increase rate of cell viability as calculated by the following equation.
# Increase Rate of Cell Viability (%)=(S−C)/C×100
# as §1
# human recombinant BACE1 = molecular target: T1, human recombinant BACE1 (Homo sapiens, UniProt P56817); test: β-secretase inhibition, human recombinant BACE1 assay kit (PanVera), fluorescence; assay type: biochemical; details: for inhibition at 0.01 µM: read-out: BACE Inhibition at 10 nM; for IC50: β-secretase (BACE)
# T1 construct: purchased PanVera, Wis., USA
# T1 sequence (P56817 46-501): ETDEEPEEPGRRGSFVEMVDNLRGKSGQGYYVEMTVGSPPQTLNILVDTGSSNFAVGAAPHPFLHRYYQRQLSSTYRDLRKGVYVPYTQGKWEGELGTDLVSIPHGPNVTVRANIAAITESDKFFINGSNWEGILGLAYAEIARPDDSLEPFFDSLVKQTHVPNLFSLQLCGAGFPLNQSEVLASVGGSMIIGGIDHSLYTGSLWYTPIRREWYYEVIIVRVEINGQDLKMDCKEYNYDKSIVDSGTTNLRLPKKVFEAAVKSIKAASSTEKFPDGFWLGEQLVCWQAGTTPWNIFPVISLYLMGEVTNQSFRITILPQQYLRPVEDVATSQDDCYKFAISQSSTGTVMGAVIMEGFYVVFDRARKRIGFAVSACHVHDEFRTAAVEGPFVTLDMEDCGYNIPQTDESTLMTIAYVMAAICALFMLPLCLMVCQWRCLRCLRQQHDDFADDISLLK
# Protocol: The primary 1,3,5-trihydroxybenzene polymer products obtained under the various conditions were assayed for inhibitory activity against β-secretase. For this purpose, a human recombinant BACE1 assay kit (PanVera, Wis., USA) was used according to the manufacturer's instructions.
# For a negative control, an assay buffer containing none of the samples was used instead of the sample solution. In the absence of light, each reaction mixture was allowed to react at 25° C. for 60 min. Thereafter, while a light beam at 528 nm was applied to the reaction mixture, fluorescent light at 620 nm was detected with Bio-Tek Microplate fluorescence reader FLx 800 (VT, USA). Inhibition activity was calculated according to the following formula:
# Inhibition (%)=[1−{(S−S0)/(C−C0)}]×100
# C is a fluorescent intensity after reaction of the negative control for 60 min,
# C0 is an initial fluorescent intensity of the negative control,
# S is a fluorescent intensity after reaction of each sample for 60 min, and
# S0 is an initial fluorescent intensity of each sample.
# [2] = N2a/APP cells, 10 μg/mL, 48 hrs, secreted Aβ(1-42)
inhibition at 0.01 µM (human recombinant BACE1) [%],IC50 (human recombinant BACE1) [nM],Structure (SMILES),"inhibition at 10 µg/mL [1, 2] [%]",Increase Rate of Cell Viability (%) (N2a/APP cells),inhibition at 10 µg/mL ([1]; 48 h) [%]
–,–,"C[C@H](NC(=O)Cc1cc(F)cc(F)c1)C(=O)N[C@@H]1C(=O)N(C)c2ccccc2-c2ccccc21 [C. Ex. 2, (S)-2-[2-(3,5-Difluoro-phenyl)-acetylamino]-N-((S)-5-methyl-6-oxo-6,7-dihydro-5H-dibenzo[b,d]azepin-7-yl)-propionamide]",21,5,–
–,–,"C[C@H](NC(=O)Cc1cc(F)cc(F)c1)C(=O)N[C@H]1N=C(c2ccccc2)c2ccccc2N(C)C1=O [C. Ex. 3, (S)-2-[2-(3,5-Difluoro-phenyl)-acetylamino]-N-((S)-1-methyl-2-oxo-5-phenyl-2,3-dihydro-1H-benzo[e][1,4]diazepin-3-yl)-propionamide]",–,−5,22
–,–,"CC(C)Cc1ccc(C(C)C(=O)O)cc1 (centres unmarked) [C. Ex. 4, ibuprofen]",17,2,–
–,–,"Cc1ccc(-c2cc(C(F)(F)F)nn2-c2ccc(S(N)(=O)=O)cc2)cc1 [C. Ex. 5, celecoxib]",19,15,–
–,–,"O=c1c(O)c(-c2ccc(O)c(O)c2)oc2cc(O)cc(O)c12 [C. Ex. 6, quercetin]",–,12,17
–,–,"Oc1ccc(C=Cc2cc(O)cc(O)c2)cc1 [C. Ex. 7, resveratrol]",–,10,13
53,5.8,Oc1cc(O)c2c(c1)Oc1c(O)cc3oc4cc(O)cc(O)c4c3c1O2 [Chemical Formula 3-1],–,–,–
87,1.7,Oc1cc(O)cc(Oc2c(O)cc(O)c3c2oc2cc(O)c4c(c23)Oc2c(O)cc(O)cc2O4)c1 [Chemical Formula 3-2],–,–,–
90,1.5,Oc1cc(O)cc(Oc2c(O)cc(O)c3c2Oc2c(O)cc4oc5cc(O)cc(O)c5c4c2O3)c1 [Chemical Formula 3-4],–,–,–
94,1.3,Oc1cc(O)cc(Oc2c(O)cc3c(c2O)Oc2c(c(O)cc4oc5c(Oc6cc(O)cc(O)c6)c(O)cc(O)c5c24)O3)c1 [Chemical Formula 3-6],30,22,–
65,4.7,Oc1cc(O)c2c(c1)Oc1c(cc3oc4cc(O)cc(O)c4c3c1O)O2 [Chemical Formula 4-1],–,–,–
77,3.6,Oc1cc(O)cc(Oc2c(O)cc(O)c3c2oc2cc4c(c(O)c23)Oc2cc(O)cc(O)c2O4)c1 [Chemical Formula 4-2],–,–,–
70,4,Oc1cc(O)cc(Oc2c(O)cc(O)c3c2Oc2c(cc4oc5cc(O)cc(O)c5c4c2O)O3)c1 [Chemical Formula 4-3],–,–,–
86,2.4,Oc1cc(O)cc(Oc2c(O)cc(O)c3c2Oc2c(cc4oc5c(Oc6cc(O)cc(O)c6)c(O)cc(O)c5c4c2O)O3)c1 [Chemical Formula 4-4],27,21,–

# From patent US20120122822A1, “COMPOSITIONS FOR REDUCING BETA-AMYLOID-INDUCED NEUROTOXICITY COMPRISING BETA-SECRETASE INHIBITOR” (Phloronol, Inc., priority 2010, published 2012)
